The results in this text go back to ChEMBL document CHEMBL1158200, “Coriadienin, the first annonaceous acetogenin with two double bonds isolated from Annona coriaceae” (J Nat Prod, 1996).

Series [1] concerns KB. Kind of series: Cytotoxicity against human KB cells. In kind it is functional.
Series [2] in a line: Cytotoxicity against african green monkey Vero cells. It is filed as cell-based. The note with it: chlorocebus sabaeus, read-out: ED50 (the source's name).

≈ marks a conversion by molar mass, not a printed value.

In series [1], `CCCCCCCCCCCC[C@H](O)[C@@H](O)CC/C=C\CC[C@@H](O)[C@H]1CCC(CCCCCCCC2=CC(C)OC2=O)O1` (some centres not stated) yielded an ED50 of 6 ×10⁻⁴ ug/ml. Also, the CC50 in series [2] was 0.05 µg/mL (≈ 0.0824 µM).
On to `CCCCCCCCCCCC[C@H](O)[C@@H](O)CCC1OC1CCC1OC1CCC(O)CCCCCC(O)CC1=CC(C)OC1=O` (some centres not stated) [BISEPOXYCORIADIENIN], for which the ED50 in series [1] worked out at 2.5 ×10⁻⁷ ug/ml. Also, the CC50 in series [2] was found to be 0.013 µg/mL (≈ 0.0203 µM).
`CCCCCCCCCCCC[C@H](O)[C@@H](O)CC/C=C\CC[C@@H](O)[C@H]1CCC(CCCCCC(O)CC2=CC(C)OC2=O)O1` (some centres not stated) [CORIACIN] showed an ED50 in series [1] of less than 3 ×10⁻⁷ ug/ml. For the same compound, in series [2], the CC50 came to 0.0057 µg/mL (≈ 0.00915 µM).
For `CCCCCCCCCCCC[C@H](O)[C@@H](O)CC/C=C\CC/C=C\CCC(O)CCCCCC(O)CC1=CC(C)OC1=O` (some centres not stated) [CORIADIENIN], in that order: 1.6 ×10⁻⁶ ug/ml and 0.15 µg/mL (≈ 0.247 µM).
For `CCCCCCCCCCCCCCC(O)C(O)CC[C@H](O)[C@H]1CC[C@H](CCCCC[C@@H](O)CC2=C[C@H](C)OC2=O)O1` (some centres not stated) [GIGANTETRONENIN], in that order: less than 3 ×10⁻⁷ ug/ml and 0.0057 µg/mL (≈ 0.00955 µM).
As to `CC(=O)O[C@H]1C(=O)[C@@]2(C)[C@H]([C@H](OC(=O)c3ccccc3)[C@]3(O)C[C@H](OC(=O)[C@H](O)[C@@H](NC(=O)c4ccccc4)c4ccccc4)C(C)=C1C3(C)C)[C@]1(OC(C)=O)CO[C@@H]1C[C@@H]2O` [PACLITAXEL], the EC50 in series [1] (Homo sapiens, KB, read-out: ED50 (the source's name)) was found to be 0.02 µg/mL (≈ 0.0234 µM). Also, the CC50 in series [2] is greater than 0.3 µg/mL.
